From ChEMBL document CHEMBL3046208, “Natural and synthetic podolactones with potential use as natural herbicide models” (2000)
The source made the active and inactive calls. The rule behind the calls is not given here.

Experiments:
Format in all cases: functional
Hordeum vulgare [1] = assay: Inhibition of root length of Hordeum vulgare (barley) at 0.1 mM after 5 days relative to untreated control; conditions: 120 h
Lactuca sativa [2] = assay: Inhibition of root length of Lactuca sativa cv. Roman (lettuce) at 0.1 mM after 5 days relative to untreated control
Allium cepa [3] = assay: Stimulation of shoot length of Allium cepa (onion) at 0.1 mM after 5 days relative to untreated control
Solanum lycopersicum [4] = assay: Inhibition of germination of Solanum lycopersicum (tomato) at 0.1 mM after 5 days relative to untreated control
Lepidium sativum [5] = assay: Inhibition of germination of Lepidium sativum at 0.1 mM after 5 days relative to untreated control
Hordeum vulgare [6] = assay: Stimulation of shoot length of Hordeum vulgare (barley) at 0.1 mM after 5 days relative to untreated control
Allium cepa [7] = assay: Inhibition of root length of Allium cepa (onion) at 0.1 mM after 5 days relative to untreated control
Lepidium sativum [8] = assay: Inhibition of root length of Lepidium sativum at 0.1 mM after 5 days relative to untreated control; conditions: 120 h
Lepidium sativum [9] = assay: Stimulation of germination of Lepidium sativum at 0.1 mM after 5 days relative to untreated control
Lepidium sativum [10] = assay: Inhibition of shoot length of Lepidium sativum at 0.1 mM after 5 days relative to untreated control; conditions: 120 h
Allium cepa [11] = assay: Stimulation of root length of Allium cepa (onion) at 0.1 mM after 5 days relative to untreated control
Hordeum vulgare [12] = assay: Inhibition of germination of Hordeum vulgare (barley) at 1 uM after 5 days relative to untreated control; conditions: 120 h
Hordeum vulgare [13] = assay: Inhibition of germination of Hordeum vulgare (barley) at 0.1 mM after 5 days relative to untreated control; conditions: 120 h
Lactuca sativa [14] = assay: Inhibition of germination of Lactuca sativa cv. Nigra (lettuce) at 0.1 mM after 5 days relative to untreated control
Triticum aestivum [15] = assay: Stimulation of shoot length of Triticum aestivum (wheat) at 0.1 mM after 5 days relative to untreated control
Lactuca sativa [16] = assay: Inhibition of germination of Lactuca sativa cv. Roman (lettuce) at 0.1 mM after 5 days relative to untreated control
Lactuca sativa [17] = assay: Stimulation of shoot length of Lactuca sativa cv. Nigra (lettuce) at 0.1 mM after 5 days relative to untreated control
Lactuca sativa [18] = assay: Stimulation of shoot length of Lactuca sativa cv. Roman (lettuce) at 0.1 mM after 5 days relative to untreated control
Allium cepa [19] = assay: Inhibition of shoot length of Allium cepa (onion) at 0.1 mM after 5 days relative to untreated control; conditions: 120 h
Lactuca sativa [20] = assay: Inhibition of shoot length of Lactuca sativa cv. Nigra (lettuce) at 0.1 mM after 5 days relative to untreated control; conditions: 120 h
Solanum lycopersicum [21] = assay: Inhibition of root length of Solanum lycopersicum (tomato) at 0.1 mM after 5 days relative to untreated control; conditions: 120 h
Hordeum vulgare [22] = assay: Inhibition of shoot length of Hordeum vulgare (barley) at 0.1 mM after 5 days relative to untreated control; conditions: 120 h
Allium cepa [23] = assay: Inhibition of germination of Allium cepa (onion) at 0.1 mM after 5 days relative to untreated control; conditions: 120 h
Solanum lycopersicum [24] = assay: Inhibition of shoot length of Solanum lycopersicum (tomato) at 0.1 mM after 5 days relative to untreated control; conditions: 120 h
Triticum aestivum [25] = assay: Inhibition of shoot length of Triticum aestivum (wheat) at 0.1 mM after 5 days relative to untreated control
Lactuca sativa [26] = assay: Stimulation of germination of Lactuca sativa cv. Roman (lettuce) at 0.1 mM after 5 days relative to untreated control
Lepidium sativum [27] = assay: Stimulation of root length of Lepidium sativum at 0.1 mM after 5 days relative to untreated control
Lactuca sativa [28] = assay: Stimulation of root length of Lactuca sativa cv. Roman (lettuce) at 0.1 mM after 5 days relative to untreated control
Triticum aestivum [29] = assay: Inhibition of root length of Triticum aestivum (wheat) at 0.1 mM after 5 days relative to untreated control
Lactuca sativa [30] = assay: Inhibition of root length of Lactuca sativa cv. Nigra (lettuce) at 0.1 mM after 5 days relative to untreated control
Lactuca sativa [31] = assay: Stimulation of germination of Lactuca sativa cv. Nigra (lettuce) at 0.1 mM after 5 days relative to untreated control
Allium cepa [32] = assay: Inhibition of germination of Allium cepa (onion) at 10 nM after 5 days relative to untreated control; conditions: 120 h
Triticum aestivum [33] = assay: Inhibition of germination of Triticum aestivum (wheat) at 0.1 mM after 5 days relative to untreated control
Solanum lycopersicum [34] = assay: Stimulation of germination of Solanum lycopersicum (tomato) at 0.1 mM after 5 days relative to untreated control
Hordeum vulgare [35] = assay: Stimulation of germination of Hordeum vulgare (barley) at 0.1 mM after 5 days relative to untreated control
Lactuca sativa [36] = assay: Inhibition of shoot length of Lactuca sativa cv. Roman (lettuce) at 0.1 mM after 5 days relative to untreated control
Triticum aestivum [37] = assay: Stimulation of root length of Triticum aestivum (wheat) at 0.1 mM after 5 days relative to untreated control
Triticum aestivum [38] = assay: Stimulation of germination of Triticum aestivum (wheat) at 0.1 mM after 5 days relative to untreated control
Solanum lycopersicum [39] = assay: Stimulation of shoot length of Solanum lycopersicum (tomato) at 0.1 mM after 5 days relative to untreated control
Lepidium sativum [40] = assay: Stimulation of shoot length of Lepidium sativum at 0.1 mM after 5 days relative to untreated control
Allium cepa [41] = assay: Stimulation of germination of Allium cepa (onion) at 0.1 mM after 5 days relative to untreated control
Solanum lycopersicum [42] = assay: Stimulation of root length of Solanum lycopersicum (tomato) at 1 nM after 5 days relative to untreated control
Hordeum vulgare [43] = assay: Stimulation of root length of Hordeum vulgare (barley) at 0.1 mM after 5 days relative to untreated control
Lactuca sativa [44] = assay: Stimulation of root length of Lactuca sativa cv. Nigra (lettuce) at 0.1 mM after 5 days relative to untreated control
Solanum lycopersicum [45] = assay: Stimulation of root length of Solanum lycopersicum (tomato) at 0.1 mM after 5 days relative to untreated control
Solanum lycopersicum [46] = assay: Stimulation of root length of Solanum lycopersicum (tomato) at 0.1 uM after 5 days relative to untreated control

## COC(=O)[C@@]1(C)CCC[C@]2(C)C3=C(CC[C@@H]12)COC(=O)C3
Hordeum vulgare [1]
  inhibition at 100 µM: > 40%
Lactuca sativa [2]
  inhibition: inactive
Allium cepa [3]
  Activity: <20%
Solanum lycopersicum [4]; 120 h
  inhibition at 100 µM: < 20%
Lepidium sativum [5]
  inhibition: inactive
Hordeum vulgare [6]
  Activity: >40%
Allium cepa [7]
  inhibition: inactive
Lepidium sativum [8]
  inhibition at 100 µM: < 20%
Lepidium sativum [9]
  Activity: inactive
Lepidium sativum [10]
  inhibition at 100 µM: < 20%
Allium cepa [11]
  Activity: inactive
Hordeum vulgare [12]
  inhibition at 1 µM: -71%
Hordeum vulgare [13]
  inhibition at 100 µM: > 40%
Lactuca sativa [14]
  inhibition: inactive
Triticum aestivum [15]
  Activity: inactive
Lactuca sativa [16]; 120 h
  inhibition at 100 µM: < 20%
Lactuca sativa [17]
  Activity: <20%
Lactuca sativa [18]
  Activity: <20%
Allium cepa [19]
  inhibition at 100 µM: < 20%
Lactuca sativa [20]
  inhibition at 100 µM: < 20%
Solanum lycopersicum [21]
  inhibition at 100 µM: > 40%
Hordeum vulgare [22]
  inhibition at 100 µM: > 40%
Allium cepa [23]
  inhibition at 100 µM: 20%
Solanum lycopersicum [24]
  inhibition at 100 µM: < 20%
Triticum aestivum [25]
  inhibition: inactive
Lactuca sativa [26]
  Activity: <20%
Lepidium sativum [27]
  Activity: <20%
Lactuca sativa [28]
  Activity: inactive
Triticum aestivum [29]
  inhibition: inactive
Lactuca sativa [30]
  inhibition: inactive
Lactuca sativa [31]
  Activity: inactive
Allium cepa [32]
  inhibition at 0.01 µM: -45%
Triticum aestivum [33]
  inhibition: inactive
Solanum lycopersicum [34]
  Activity: <20%
Hordeum vulgare [35]
  Activity: >40%
Lactuca sativa [36]; 120 h
  inhibition at 100 µM: < 20%
Triticum aestivum [37]
  Activity: inactive
Triticum aestivum [38]
  Activity: inactive
Solanum lycopersicum [39]
  Activity: <20%
Lepidium sativum [40]
  Activity: <20%
Allium cepa [41]
  Activity: 20%
Solanum lycopersicum [42]
  Activity: 56%
Hordeum vulgare [43]
  Activity: >40%
Lactuca sativa [44]
  Activity: inactive
Solanum lycopersicum [45]
  Activity: >40%

## COC(=O)[C@@]1(C)CCC[C@]2(C)c3cc(=O)occ3CC[C@@H]12
Hordeum vulgare [1]
  inhibition at 100 µM: 20%
Lactuca sativa [2]
  inhibition: inactive
Solanum lycopersicum [46]
  Activity: 58%
Allium cepa [3]
  Activity: <20%
Solanum lycopersicum [4]
  inhibition: inactive
Lepidium sativum [5]
  inhibition: inactive
Hordeum vulgare [6]
  Activity: <20%
Allium cepa [7]
  inhibition: inactive
Lepidium sativum [8]
  inhibition at 100 µM: 20%
Lepidium sativum [9]
  Activity: inactive
Lepidium sativum [10]
  inhibition at 100 µM: < 20%
Allium cepa [11]
  Activity: inactive
Hordeum vulgare [13]
  inhibition at 100 µM: 20%
Lactuca sativa [14]; 120 h
  inhibition at 100 µM: < 20%
Triticum aestivum [15]
  Activity: inactive
Lactuca sativa [16]
  inhibition: inactive
Lactuca sativa [17]
  Activity: <20%
Lactuca sativa [18]
  Activity: inactive
Allium cepa [19]
  inhibition at 100 µM: < 20%
Lactuca sativa [20]
  inhibition at 100 µM: < 20%
Solanum lycopersicum [21]
  inhibition at 100 µM: > 40%
Hordeum vulgare [22]
  inhibition at 100 µM: < 20%
Allium cepa [23]
  inhibition at 100 µM: < 20%
Solanum lycopersicum [24]
  inhibition at 100 µM: < 20%
Triticum aestivum [25]
  inhibition: inactive
Lactuca sativa [26]
  Activity: inactive
Lepidium sativum [27]
  Activity: 20%
Lactuca sativa [28]
  Activity: inactive
Triticum aestivum [29]; 120 h
  inhibition at 100 µM: < 20%
Lactuca sativa [30]
  inhibition: inactive
Lactuca sativa [31]
  Activity: <20%
Triticum aestivum [33]; 120 h
  inhibition at 100 µM: < 20%
Solanum lycopersicum [34]
  Activity: inactive
Hordeum vulgare [35]
  Activity: 20%
Lactuca sativa [36]
  inhibition: inactive
Triticum aestivum [37]
  Activity: <20%
Triticum aestivum [38]
  Activity: <20%
Solanum lycopersicum [39]
  Activity: <20%
Lepidium sativum [40]
  Activity: <20%
Allium cepa [41]
  Activity: <20%
Hordeum vulgare [43]
  Activity: 20%
Lactuca sativa [44]
  Activity: inactive
Solanum lycopersicum [45]
  Activity: >40%
